tested on: HIV; assay: MT4 assay (anti-HIV activity); assay type: cell-based; settings: Human immunodeficiency virus 1, 96 h, antiviral HIV activity in HTLV-1 transformed cell line MT-4; luciferase read 96 hours later; 10 point dose response
Procedure: Antiviral HIV activity and cytotoxicity values for compounds of the invention from Table 1 were measured in parallel in the HTLV-1 transformed cell line MT-4 based on the method previously described (Hazen et al., 2007, In vitro antiviral activity of the novel, tyrosyl-based human immunodeficiency virus (HIV) type 1 protease inhibitor brecanavir (GW640385) in combination with other antiretrovirals and against a panel of protease inhibitor-resistant HIV (Hazen et al., “In vitro antiviral activity of the novel, tyrosyl-based human immunodeficiency virus (HIV) type 1 protease inhibitor brecanavir (GW640385) in combination with other antiretrovirals and against a panel of protease inhibitor-resistant HIV”, Antimicrob. Agents Chemother. 2007, 51: 3147-3154; and Pauwels et al., “Sensitive and rapid assay on MT-4 cells for the detection of antiviral compounds against the AIDS virus”, J. of Virological Methods 1987, 16: 171-185).
Luciferase activity was measured 96 hours later by adding a cell titer glo (Promega, Madison, Wis.). Percent inhibition of cell protection data was plotted relative to no compound control. Under the same condition, cytotoxicity of the compounds was determined using cell titer Glo™ (Promega, Madison, Wis.). IC50s were determined from a 10 point dose response curve using 3-4-fold serial dilution for each compound, which spans a concentration range >1000 fold.
These values are plotted against the molar compound concentrations using the standard four parameter logistic equation:
y=((Vmax*x̂n)/(K̂n+x̂n))+Y2
Y2=minimum y n=slope factor
Vmax=maximum y x=compound concentration [M]

Row | SMILES | IC50
1 | Cc1ccc(-c2c(C)c3c(c(C)c2[C@H](OC(C)(C)C)C(=O)O)CN(C(=O)N2CCC(C)(C)CC2)CC3)cc1 [Example 13, (S)-2-(tert-Butoxy)-2-(2-(4,4-dimethylpiperidine-1-carbonyl)-5,8-dimethyl-6-(p-tolyl)-1,2,3,4-tetrahydroisoquinolin-7-yl)acetic Acid] | 129 nM
2 | Cc1ccc(-c2c(C)c3c(c(C)c2[C@H](OC(C)(C)C)C(=O)O)CCN(Cc2ccccc2)C3)cc1 [Example 55, (S)-2-(2-benzyl-5,8-dimethyl-7-(p-tolyl)-1,2,3,4-tetrahydroisoquinolin-6-yl)-2-(tert-butoxy)acetic Acid] | 349 nM
3 | Cc1ccc(-c2c(C)c3c(c(C)c2[C@H](OC(C)(C)C)C(=O)O)CCN(C2CC4CCC2C4)C3)cc1 (stereo partly drawn) [Example 49, (2S)-2-(2-(bicyclo[2.2.1]heptan-2-yl)-5,8-dimethyl-7-(p-tolyl)-1,2,3,4-tetrahydroisoquinolin-6-yl)-2-(tert-butoxy)acetic Acid] | 11 nM
4 | Cc1c(-c2c(C)c3c(c(C)c2[C@H](OC(C)(C)C)C(=O)O)CC(=O)N(C2CCCCC2)C3)ccc2c1NCCO2 (atropisomer, axis not shown) [Example 119, (S)-2-(tert-butoxy)-2-((R)-2-cyclohexyl-5,8-dimethyl-7-(5-methyl-3,4-dihydro-2H-benzo[b][1,4]oxazin-6-yl)-3-oxo-1,2,3,4-tetrahydroisoquinolin-6-yl)acetic Acid] | 8 nM
5 | Cc1ccc(-c2c(C)c3c(c(C)c2[C@H](OC(C)(C)C)C(=O)O)CCN(S(=O)(=O)c2cccc(F)c2)C3)cc1 [Example 57, (S)-2-(tert-butoxy)-2-(2-((3-fluorophenyl)sulfonyl)-5,8-dimethyl-7-(p-tolyl)-1,2,3,4-tetrahydroisoquinolin-6-yl)acetic Acid] | 292 nM
6 | Cc1c(-c2c(C)c3c(c(C)c2[C@H](OC(C)(C)C)C(=O)O)CC(=O)N(CC2CCCCC2)C3)cc(F)c2c1CCCO2 (atropisomer, axis not shown) [Example 106, (S)-2-(tert-butoxy)-2-((R)-2-(cyclohexylmethyl)-7-(8-fluoro-5-methylchroman-6-yl)-5,8-dimethyl-3-oxo-1,2,3,4-tetrahydroisoquinolin-6-yl)acetic Acid] | 3 nM
7 | Cc1c(-c2c(C)c3c(c(C)c2[C@H](OC(C)(C)C)C(=O)O)CC(=O)N(C2CCCCC2)C3)ccc2c1CCCO2 (atropisomer, axis not shown) [Example 120, (S)-2-(tert-butoxy)-2-((R)-2-cyclohexyl-5,8-dimethyl-7-(5-methylchroman-6-yl)-3-oxo-1,2,3,4-tetrahydroisoquinolin-6-yl)acetic Acid] | 2 nM
8 | Cc1c(-c2c(C)c3c(c(C)c2[C@H](OC(C)(C)C)C(=O)O)CC(=O)N(C2CCCCC2)C3)cc(Cl)c2c1CCCO2 (atropisomer, axis not shown) [Example 118] | 4 nM
9 | Cc1c(-c2c(C)c3c(c(C)c2[C@H](OC(C)(C)C)C(=O)O)CC(=O)N(C2CCN(C(=O)OC(C)(C)C)CC2)C3)cc(F)c2c1CCCO2 (atropisomer, axis not shown) [Example 115] | 116 nM
10 | Cc1ccc(-c2c(C)c3c(c(C)c2C(OC(C)(C)C)C(=O)O)CCN(C(=O)N2CCCCC2)C3)cc1 (stereo not drawn) [Example 23, 2-(tert-Butoxy)-2-(5,8-dimethyl-2-(piperidine-1-carbonyl)-7-(p-tolyl)-1,2,3,4-tetrahydroisoquinolin-6-yl)acetic Acid] | 108 nM
11 | Cc1ccc(-c2c(C)c3c(c(C)c2[C@H](OC(C)(C)C)C(=O)O)CCN(C(=O)C2(C)CCCCC2)C3)cc1 [Example 76, (S)-2-(tert-butoxy)-2-(5,8-dimethyl-2-(1-methylcyclohexanecarbonyl)-7-(p-tolyl)-1,2,3,4-tetrahydroisoquinolin-6-yl)acetic Acid] | 41 nM
12 | Cc1ccc(-c2c(C)c3c(c(C)c2[C@H](OC(C)(C)C)C(=O)O)CCN(CC(=O)N2CCCCC2)C3)cc1 [Example 54, (S)-2-(tert-butoxy)-2-(5,8-dimethyl-2-(2-oxo-2-(piperidin-1-yl)ethyl)-7-(p-tolyl)-1,2,3,4-tetrahydroisoquinolin-6-yl)acetic Acid] | 309 nM
13 | Cc1ccc(-c2c(C)c3c(c(C)c2[C@H](OC(C)(C)C)C(=O)O)CN(Cc2ccccc2)C(=O)C3)cc1 [Example 100, (S)-2-(2-Benzyl-5,8-dimethyl-3-oxo-6-(p-tolyl)-1,2,3,4-tetrahydroisoquinolin-7-yl)-2-(tert-butoxy)acetic Acid] | 1360 nM
14 | COc1ccc(C(=O)N2CCc3c(C)c([C@H](OC(C)(C)C)C(=O)O)c(-c4cc(F)c5c(c4C)CCCO5)c(C)c3C2)cc1C (atropisomer, axis not shown) [Example 97, (S)-2-(tert-butoxy)-2-((R)-7-(8-fluoro-5-methylchroman-6-yl)-2-(4-methoxy-3-methylbenzoyl)-5,8-dimethyl-1,2,3,4-tetrahydroisoquinolin-6-yl)acetic Acid] | 36 nM
15 | Cc1ccc(-c2c(C)c3c(c(C)c2[C@H](OC(C)(C)C)C(=O)O)CCN(S(=O)(=O)C2CCCC2)C3)cc1 [Example 65, (S)-2-(tert-butoxy)-2-(2-(cyclopentylsulfonyl)-5,8-dimethyl-7-(p-tolyl)-1,2,3,4-tetrahydroisoquinolin-6-yl)acetic Acid] | 12 nM
16 | Cc1c(-c2c(C)c3c(c(C)c2[C@H](OC(C)(C)C)C(=O)O)CC(=O)N(C2CCC(C)(C)CC2)C3)cc(F)c2c1CCCO2 (atropisomer, axis not shown) [Example 105, (S)-2-(tert-butoxy)-2-((R)-2-(4,4-dimethylcyclohexyl)-7-(8-fluoro-5-methylchroman-6-yl)-5,8-dimethyl-3-oxo-1,2,3,4-tetrahydroisoquinolin-6-yl)acetic Acid] | 2 nM
17 | Cc1ccc(-c2c(C)c3c(c(C)c2[C@H](OC(C)(C)C)C(=O)O)CCN(S(=O)(=O)N2CCCCC2)C3)cc1 [Example 38, (S)-2-(tert-butoxy)-2-(5,8-dimethyl-2-(piperidin-1-ylsulfonyl)-7-(p-tolyl)-1,2,3,4-tetrahydroisoquinolin-6-yl)acetic Acid] | 23 nM
18 | Cc1ccc(-c2c(C)c3c(c(C)c2C(OC(C)(C)C)C(=O)O)CN(C2CCCCC2)CC3)cc1 (stereo not drawn) [Example 2, 2-(tert-Butoxy)-2-(2-cyclohexyl-5,8-dimethyl-6-(p-tolyl)-1,2,3,4-tetrahydroisoquinolin-7-yl)acetic Acid] | 1720 nM
19 | Cc1ccc(-c2c(C)c3c(c(C)c2[C@H](OC(C)(C)C)C(=O)O)CCN(C2CCCCCC2)C3)cc1 [Example 50, (S)-2-(tert-butoxy)-2-(2-cycloheptyl-5,8-dimethyl-7-(p-tolyl)-1,2,3,4-tetrahydroisoquinolin-6-yl)acetic Acid] | 5 nM
20 | Cc1c(-c2c(C)c3c(c(C)c2[C@H](OC(C)(C)C)C(=O)O)C(C)(C)C(=O)N(C2CCCCC2)C3)cc(F)c2c1CCCO2 (atropisomer, axis not shown) [Example 109] | 4 nM
21 | Cc1ccc(-c2c(C)c3c(c(C)c2[C@H](OC(C)(C)C)C(=O)O)CCN(C(=O)C(C)(C)C)C3)cc1 [Example 24, (S)-2-(tert-Butoxy)-2-(5,8-dimethyl-2-pivaloyl-7-(p-tolyl)-1,2,3,4-tetrahydroisoquinolin-6-yl)acetic Acid] | 87 nM
22 | Cc1ccc(-c2c(C)c3c(c(C)c2[C@H](OC(C)(C)C)C(=O)O)CN(S(=O)(=O)N2CCC(C)(C)CC2)CC3)cc1 [Example 15, (S)-2-(tert-Butoxy)-2-(2-((4,4-dimethylpiperidin-1-yl)sulfonyl)-5,8-dimethyl-6-(p-tolyl)-1,2,3,4-tetrahydroisoquinolin-7-yl)acetic Acid] | 113 nM
23 | Cc1ccc(-c2c(C)c3c(c(C)c2[C@H](OC(C)(C)C)C(=O)O)CCN(S(=O)(=O)c2ccccc2)C3)cc1 [Example 41, (S)-2-(tert-butoxy)-2-(5,8-dimethyl-2-(phenylsulfonyl)-7-(p-tolyl)-1,2,3,4-tetrahydroisoquinolin-6-yl)acetic Acid] | 138 nM
24 | Cc1ccc(-c2c(C)c3c(c(C)c2[C@H](OC(C)(C)C)C(=O)O)CCN(CCC2CCCCC2)C3)cc1 [Example 39, (S)-2-(tert-butoxy)-2-(2-(2-cyclohexylethyl)-5,8-dimethyl-7-(p-tolyl)-1,2,3,4-tetrahydroisoquinolin-6-yl)acetic Acid] | 225 nM
25 | Cc1ccc(-c2c(C)c3c(c(C)c2[C@H](OC(C)(C)C)C(=O)O)CN(S(=O)(=O)CC2CCCCC2)CC3)cc1 [Example 18, (S)-2-(tert-Butoxy)-2-(2-((cyclohexylmethyl)sulfonyl)-5,8-dimethyl-6-(p-tolyl)-1,2,3,4-tetrahydroisoquinolin-7-yl)acetic Acid] | 1180 nM
26 | Cc1ccc(-c2c(C)c3c(c(C)c2C(OC(C)(C)C)C(=O)O)CN(C(=O)c2cccc(F)c2)CC3)cc1 (stereo not drawn) [Example 6] | 347 nM
27 | Cc1ccc(-c2c(C)c3c(c(C)c2[C@H](OC(C)(C)C)C(=O)O)CCN(S(=O)(=O)C2CCCCCC2)C3)cc1 [Example 68, (S)-2-(tert-butoxy)-2-(2-(cycloheptylsulfonyl)-5,8-dimethyl-7-(p-tolyl)-1,2,3,4-tetrahydroisoquinolin-6-yl)acetic Acid] | 50 nM

Source: patent US20180334436A1 (VIIV HEALTHCARE UK LIMITED, priority 2015, published 2018)
